According to patent US7238813B2, “Chemical compounds” (Smithkline Beecham Corporation, priority 2000, dated 2007):
Structures can show the parent of a compound that is named as a salt.

Assays:
[1] = target: T1, GST-TIE2 (intracellular domains of human TIE2) (Homo sapiens, UniProt Q02763); experiment: TIE-2 enzyme assay (TIE2-E), LANCE method; assay type: biochemical; settings: 80 uM ATP
T1 construct: made in house
Method: TIE-2Enzyme Assay (TIE2-E)
The TIE-2 enzyme assay used the LANCE method (Wallac) and GST-TIE2, baculovirus expressed recombinant constructs of the intracellular domains of human TIE2 (amino acids 762–1104, GenBank Accession # L06139) tagged by GST). […] This peptide phosphorylation was detected using the following procedure: for enzyme preactivation, GST-TIE2 was incubated for 30 mins at room temperature with 2 mM ATP, 5 mM MgCl2 and 12.5 mM DTT in 22.5 mM HEPES buffer (pH7.4). Preactivated GST-TIE2 was incubated for 30 mins at room temperature in 96 well plates with 1 μM D1-15 peptide, 80 uM ATP, 10 mM MgCl2, 0.1 mg/ml BSA and the test compound (diluted from a 10 mM stock in DMSO, final DMSO concentration was 2.4%) in 1 mM HEPES (pH7.4). The reaction was stopped by the addition of EDTA (final concentration 45 mM). Streptavidin linked-APC (allophycocyanin, Molecular Probe) and Europium-labeled anti-phosphorylated tyrosine antibody (Wallac) were then added at the final concentration of 17 μg/well and 2.1 μg/well, respectively. The APC signal was measured using an ARVO multilabel counter. (Wallac Berthold Japan). The percent inhibition of activity was calculated relative to blank control wells. The concentration of test compound that inhibits 50% of activity (IC50) was interpolated using nonlinear regression (Levernberg-Marquardt) and the equation, y=Vmax (1−x/(K+x))+Y2, where “K” was equal to the IC50. The IC50 values were converted to pIC50 values, i.e., −log IC50 in Molar concentration.

[2] = target: T2, TIE2 intracellular domain/c-fms extracellular domain (TIE2/c-fms) chimeric protein expressing mouse 3T3 cells (Homo sapiens, UniProt Q02763); experiment: TIE-2 autophosphorylation assay (TIE2-C), ELISA; assay type: cell-based; settings: TIE2/c-fms 3T3 cells, MCSF activation
T2 construct: a TIE2 intracellular domain/c-fms extracellular domain (TIE2/c-fms) chimeric protein; expressed in transfected cells; host or cells: mouse 3T3 cells
T2 sequence (Q02763 770-1124 limits assumed, change not shown): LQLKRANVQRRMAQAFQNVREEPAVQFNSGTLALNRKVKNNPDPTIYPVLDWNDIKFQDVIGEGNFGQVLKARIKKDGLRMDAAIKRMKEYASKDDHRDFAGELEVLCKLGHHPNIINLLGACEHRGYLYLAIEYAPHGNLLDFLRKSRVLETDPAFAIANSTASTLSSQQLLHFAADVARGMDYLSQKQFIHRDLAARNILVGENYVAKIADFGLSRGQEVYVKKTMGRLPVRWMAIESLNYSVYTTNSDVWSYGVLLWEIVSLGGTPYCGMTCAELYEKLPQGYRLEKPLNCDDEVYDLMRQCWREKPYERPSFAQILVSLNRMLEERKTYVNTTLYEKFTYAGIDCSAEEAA
Method: TIE-2 Autophosphorylation Assay (TIE2-C)
The TIE-2 autophosphorylation assay used an ELISA method and a TIE2 intracellular domain/c-fms extracellular domain (TIE2/c-fms) chimeric protein expressing mouse 3T3 cells. This assay measured the autophosphorylation level of TIE2 protein expressed in cells. The cells were cultured in high glucose DMEM (Sigma) containing 10% serum at 37° C. in a humidified 10% CO2, 90% air incubator. The test compound (diluted from a 10 mM stock in DMSO, final DMSO concentration was 0.1%) was incubated with TIE2/c-fms expressing cells for 1 hr in serum free DMEM in 96 well plates followed by the activation of TIE2/c-fms receptor using c-fms ligand, MCSF (macrophage colony stimulating factor). The culture media was removed by aspiration and the cells incubated for at least 30 mins on ice with lysis buffer containing 137 mM NaCl, 2 mM EDTA, 10% glycerol, […] sodium ortho vanadate and complete protease inhibitor cocktail (Roche) in 20 mM Tris-HCl (pH8.0). The cell extracts were transferred into Rat anti-c-fms antibody coated 96 well plates and incubated for 12 hrs at 4° C. The extracts were removed by aspiration and the plate was incubated with biotinylated anti-phosphotyrosine antibody, PT66 (Sigma) and then with HRP (Horseradish Peroxidase)-labeled streptavidin (PIERCE). The optical density at 450 nm derived from HRP catalyzed TMB was measured with an ARVO multilabel counter. (Wallac Berthold Japan). The percent inhibition of activity was calculated relative to blank control wells. The concentration of test compound that inhibits 50% of activity (IC50) was interpolated using nonlinear regression (Levernberg-Marquardt) and the equation, y=Vmax (1−x/(K+x))+Y2, where “K” was equal to the IC50. The IC50 values were converted to pIC50 values, i.e., −log IC50 in Molar concentration.

GST-VEGFR2 = target: T3, GST-VEGFR2 (Homo sapiens, UniProt P35968); experiment: VEGF-R2 enzyme assay (VEGF-E), LANCE method; assay type: biochemical; settings: 75 μM ATP
T3 construct: GST-VEGFR2, baculovirus expressed recombinant constructs of the intracellular domains of human TIE2 tagged by GST; made in house
T3 sequence (P35968 786-1356 limits assumed): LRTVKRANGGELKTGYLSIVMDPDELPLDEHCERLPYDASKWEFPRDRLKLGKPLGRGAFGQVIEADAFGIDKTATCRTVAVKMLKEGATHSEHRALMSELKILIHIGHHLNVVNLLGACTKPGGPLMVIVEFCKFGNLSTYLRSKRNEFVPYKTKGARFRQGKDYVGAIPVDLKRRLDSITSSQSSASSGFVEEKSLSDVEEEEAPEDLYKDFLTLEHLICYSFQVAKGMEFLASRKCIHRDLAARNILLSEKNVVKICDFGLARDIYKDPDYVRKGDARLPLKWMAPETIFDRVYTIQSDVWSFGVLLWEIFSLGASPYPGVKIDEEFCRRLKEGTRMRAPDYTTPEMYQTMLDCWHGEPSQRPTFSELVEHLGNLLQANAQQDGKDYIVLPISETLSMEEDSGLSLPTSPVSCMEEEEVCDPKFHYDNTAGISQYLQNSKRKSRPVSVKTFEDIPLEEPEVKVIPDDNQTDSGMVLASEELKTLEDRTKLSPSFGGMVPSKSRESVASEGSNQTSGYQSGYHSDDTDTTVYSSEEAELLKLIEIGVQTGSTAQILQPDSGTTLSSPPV
Method: VEGF-R2 Enzyme Assay (VEGF-E)
The VEGF enzyme assay used the LANCE method (Wallac) and GST-VEGFR2, baculovirus expressed recombinant constructs of the intracellular domains of human […] tagged by GST. […] The reaction was stopped by the addition of EDTA (final concentration 50 mM). Streptavidin linked-APC (allophycocyanin, Molecular Probe) and Europium-labeled anti-phosphorylated tyrosine antibody (Wallac) were then added at the final concentration of 15 nM and 1 nM, respectively. The APC signal was measured using an ARVO multilabel counter (Wallac Berthold, Japan). The percent inhibition of activity was calculated relative to blank control wells. The concentration of test compound that inhibits 50% of activity (IC50) was interpolated using nonlinear regression (Levernberg-Marquardt) and the equation, y=Vmax (1−x/(K+x))+Y2, where “K” was equal to the IC50. The IC50 values were converted to pIC50 values, i.e., −log IC50 in Molar concentration.

T1 sequence (Q02763 762-1104): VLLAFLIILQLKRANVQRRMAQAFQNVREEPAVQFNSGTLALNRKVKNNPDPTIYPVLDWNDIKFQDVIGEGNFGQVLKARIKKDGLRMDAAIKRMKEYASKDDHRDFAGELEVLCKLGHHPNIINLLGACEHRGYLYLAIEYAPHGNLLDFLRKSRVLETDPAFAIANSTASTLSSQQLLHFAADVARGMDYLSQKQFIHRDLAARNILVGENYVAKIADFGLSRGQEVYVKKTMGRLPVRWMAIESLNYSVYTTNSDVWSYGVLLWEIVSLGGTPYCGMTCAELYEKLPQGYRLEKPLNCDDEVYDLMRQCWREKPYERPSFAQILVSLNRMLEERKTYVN

SMILES	IC50 [1] [µM]	IC50 [2] [µM]	IC50 (GST-VEGFR2) [µM]
O=C(Nc1ccc(Oc2ccc3nc(NC(=O)c4c[nH]c5ccccc45)[nH]c3c2)cc1)Nc1cc(C(F)(F)F)ccc1F [Example 95, N-(5-(4-((2-Fluoro-5-(trifluoromethyl)phenyl)aminocarbonylamino)phenoxy)-1H-benzimidazol-2-yl)(1H-indole-3-carboxamide)]	< 0.1	0.1 to 1	< 0.1
COC(=O)Nc1nc2c(Br)cc(Oc3ccc(NC(=O)Nc4cc(C(F)(F)F)ccc4F)cc3)cc2s1.Cl [Example 65, Methyl N-(4-bromo-6-(4-((6-fluoro-3-(trifluoromethylphenyl)aminocarbonylamino)phenoxy)benzthiazol-2-yl)carbamate hydrochloride]	< 0.1	< 0.1	< 0.1
CCc1cccc(NC(=O)Nc2ccc(Oc3ccc4[nH]c(NC(=O)OC)nc4c3)nc2)c1 [Example 39, Methyl N-(5-(5-((3-ethylphenyl)aminocarbonylamino)-2-pyridyloxy)-1H-benzimidazol-2-yl)carbamate]	0.1 to 1	0.1 to 1	0.1 to 1
COC(=O)Nc1nc2cc([S+]([O-])c3ccc(NC(=O)Nc4cc(Cl)ccc4Cl)cc3)ccc2[nH]1 (centres unmarked) [Example 79, Methyl N-(5-(4-((2,5-dichlorophenyl)aminocarbonylamino)phenylsulfinyl)-1H-benzimidazol-2-yl)carbamate]	0.1 to 1	0.1 to 1	
COC(=O)Nc1nc2cc(Sc3ccc(NC(=O)Nc4cc(Cl)ccc4Cl)cc3)ccc2[nH]1 [Example 57, Methyl N-(5-(4-((2,5-dichlorophenyl)aminocarbonylamino)phenylthio)-1H-benzimidazol-2-yl)carbamate]	< 0.1	0.1 to 1	
O=C(Nc1ccc(Oc2ccc3nc(NC(=O)c4ccc(-n5cccc5)cc4)[nH]c3c2)cc1)Nc1cc(C(F)(F)F)ccc1F [Example 90, N-(5-(4-((2-Fluoro-5-(trifluoromethyl)phenyl)aminocarbonylamino)phenoxy)-1H-benzimidazol-2-yl)-4-(pyrrol-1-yl)benzamide]	< 0.1	1 to 10	< 0.1
CCc1cccc(NC(=O)Nc2cccc(Oc3ccc4[nH]c(NC(=O)OC)nc4c3)c2)c1 [Example 16, Methyl N-(5-(3-((3-ethylphenyl)aminocarbonylamino)phenoxy)-1H-benzimidazol-2-yl)carbamate]	< 0.1	< 0.1	< 0.1
COC(=O)Nc1nc2ccc(Oc3cccc(NC(=O)Nc4cc(C(F)(F)F)ccc4Cl)c3)cc2[nH]1 [Example 52, Methyl N-(5-(3-((2-chloro-5-(trifluoromethyl)phenyl)aminocarbonylamino)phenoxy)-1H-benzimidazol-2-yl)carbamate hydrochloride]	< 0.1	0.1 to 1	< 0.1
COC(=O)Nc1nc2ncc(Oc3ccc(NC(=O)Nc4cc(C(F)(F)F)ccc4Cl)cc3)cc2[nH]1 [Example 73, Methyl N-(6-(4-((2-chloro-5-(trifluoromethyl)phenyl)aminocarbonylamino)phenoxy)-3,4-diaza-1H-indole-2-yl)carbamate dihydrochloride]	0.1 to 1	0.1 to 1	< 0.1

Results, then the molecule that gave them:

IC50 [1] [µM]	IC50 [2] [µM]	IC50 (GST-VEGFR2) [µM]	SMILES
0.1 to 1	0.1 to 1	0.1 to 1	COC(=O)Nc1nc2cc(Oc3ccc(NC(=O)Nc4cc(Cl)ccc4Cl)cn3)ccc2[nH]1 [Example 112, Methyl N-(5-(5-((2,5-dichlorophenyl)aminocarbonylamino)-2-pyridyloxy)-1H-benzimidazol-2-yl)carbamate dihydrochloride]
< 0.1	0.1 to 1		O=C(Nc1ccc(Oc2ccc3[nH]c(NC(=O)c4ccccc4)nc3c2)cc1)Nc1cc(C(F)(F)F)ccc1F [Example 99, N-(5-(4-((2-Fluoro-5-(trifluoromethyl)phenyl)aminocarbonylamino)phenoxy)-1H-benzimidazol-2-yl)benzamide]
< 0.1	< 0.1	< 0.1	O=C(Nc1ccc(Oc2ccc3nc(NC(=O)c4cccs4)[nH]c3c2)cc1)Nc1cc(C(F)(F)F)ccc1F [Example 100, N-(5-(4-((2-Fluoro-5-(trifluoromethyl)phenyl)aminocarbonylamino)phenoxy)-1H-benzimidazol-2-yl)-2-thiophenecarboxamide]
< 0.1	0.1 to 1	0.1 to 1	COC(=O)Nc1nc2ccc(Oc3ccc(NC(=O)Nc4cc(C(F)(F)F)ccc4F)c[n+]3[O-])cc2[nH]1 [Example 107, Methyl N-(5-(5-((2-fluoro-5-(trifluoromethyl)phenyl)aminocarbonylamino)-1-oxo-2-pyridyloxy)-1H-benzimidazol-2-yl)carbamate]
1 to 10	0.1 to 1		COC(=O)Nc1nc2ccc(Oc3ccc(NC(=S)Nc4cccc(C(F)(F)F)c4)cc3)cc2[nH]1 [Example 186, Methyl N-(5-(4-((3-(trifluoromethyl)phenyl)aminothiocarbonylamino)phenoxy)-1H-benzimidazol-2-yl)carbamate]
0.1 to 1	1 to 10	< 0.1	CN(C)CCNc1nc2cc(Oc3ccc(NC(=O)Nc4cc(C(F)(F)F)ccc4F)cc3)ccc2[nH]1 [Example 105, 2-(2-(Dimethylamino)ethylamino)-5-(4-((2-fluoro-5-(trifluoromethyl)phenyl)aminocarbonylamino)phenoxy)-1H-benzimidazole]
0.1 to 1	0.1 to 1	< 0.1	CN1CCN(CCNc2nc3cc(Oc4ccc(NC(=O)Nc5cc(C(F)(F)F)ccc5F)cc4)ccc3[nH]2)CC1 [Example 104, 2-(2-(4-Methyl-1-piperazino)ethylamino)-5-(4-((2-fluoro-5-(trifluoromethyl)phenyl)aminocarbonylamino)phenoxy)-1H-benzimidazole]
0.1 to 1	0.1 to 1	< 0.1	CN1CCN(CCCNc2nc3ccc(Oc4ccc(NC(=O)Nc5cc(C(F)(F)F)ccc5F)cc4)cc3[nH]2)CC1 [Example 106, 2-(3-(4-methyl-1-piperazino)propylamino)-5-(4-((2-fluoro-5-(trifluoromethyl)phenyl)aminocarbonylamino)phenoxy)-1H-benzimidazole]
< 0.1	0.1 to 1	0.1 to 1	CC(=O)Nc1nc2ccc(Oc3ccc(NC(=O)Nc4cc(C(F)(F)F)ccc4F)nc3)cc2n1Cc1ccccc1 [Example 110]
1 to 10	1 to 10	< 0.1	COC(=O)Nc1nc2cc(Oc3ccc(NC(=S)Nc4cccc(Cl)c4)cc3)ccc2[nH]1 [Example 184, Methyl N-(5-(4-((3-chlorophenyl)aminothiocarbonylamino)phenoxy)-1H-benzimidazol-2-yl)carbamate]
